Results from patent publication EP4685153A1 (priority 2023, dated 2024).
Residues, ends and D or L forms follow the SMILES beside them. *: point of attachment. Succinyl(4-O-cholesteryl) = CC(C)CCC[C@@H](C)[C@H]1CC[C@H]2[C@@H]3CC=C4C[C@@H](OC(=O)CCC(=O)*)CC[C@]4(C)[C@H]3CC[C@]12C

Key:
[1] = test system: replicative HIV-1 strain JR-CSF
[2] = test system: RABV; conditions: 48 h
[3] = test system: MERS-CoV; conditions: 48 h
[4] = test system: HIV-1 envelope protein (Env); assay: Env-mediated cell-cell fusion inhibition (DSP reporter system)
[5] = In vitro cytotoxicity (CCK-8), 293T/ACE2 cells; assay type: cell-based; conditions: human, CCK-8, 48 hours
Description: (§1) The in vitro cytotoxicity was detected by using a CCK-8 cell proliferation/toxicity assay kit (manufacturer: Abbkine, Cat. No.: KTC 011001). […] By using GraphPad Prism software, the inhibition rate curve was fitted and the half-maximal cytotoxic concentration (CC50) of the drug was calculated.

[6] = test system: H7N9; conditions: 48 h
[7] = target: N44 (Human immunodeficiency virus type 1 group M subtype B, UniProt P04578); assay: Circular dichroism of lipopeptide complex with target sequence N44; conditions: CD
Sequence of N44 (P04578 538-581): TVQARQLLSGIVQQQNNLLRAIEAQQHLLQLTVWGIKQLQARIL

[8] = In vitro cytotoxicity (CCK-8), MDCK cells; assay type: cell-based; conditions: dog, CCK-8, 48 hours
Description: as §1

[9] = test system: HIV-1 strain JRFL pseudovirus; conditions: strain JRFL pseudovirus
[10] = Temperature stability experiment (antiviral activity after storage); conditions: 300 µM aqueous solution, room temperature or 37 °C, various time periods; NL4-3 pseudovirus, TZM-bl cells
[11] = In vitro cytotoxicity (CCK-8), Huh-7 cells; assay type: cell-based; conditions: human, CCK-8, 48 hours
Description: as §1

[12] = In vitro cytotoxicity (CCK-8), Hep-2 cells; assay type: cell-based; conditions: human, CCK-8, 48 hours
Description: as §1

[13] = test system: VSV; conditions: 48 h
[14] = test system: T20-resistant mutant strains (HIV-1 strain NL4-3)
[15] = test system: protease K, trypsin, or α-chymotrypsin
[16] = In vitro cytotoxicity (CCK-8), HEK293T cells; assay type: cell-based; conditions: human, CCK-8, 48 hours
Description: as §1

[17] = test system: HIV-1 strain NL4-3 pseudovirus; conditions: strain NL4-3 pseudovirus
[18] = In vitro cytotoxicity (CCK-8), MT-4 cells; assay type: cell-based; conditions: human, CCK-8, 48 hours
Description: as §1

[19] = test system: MARV; conditions: 48 h
[20] = test system: representative pandemic HIV-1 strain pseudoviruses
[21] = In vitro cytotoxicity (CCK-8), TZM-bl cells; assay type: cell-based; conditions: human, CCK-8, 48 hours
Description: as §1

[22] = test system: seven test cells; assay: In vitro cytotoxicity (CCK-8), average over seven test cells; assay type: cell-based; conditions: CC50/IC50
Description: as §1

[23] = test system: EBOV; conditions: 48 h
[24] = test system: HIV-1 strain SG3.1 living virus
[25] = Human serum stability experiment (antiviral activity after incubation); conditions: 20% human serum, 37 °C, 0 to 240 minutes; NL4-3 pseudovirus, TZM-bl cells
[26] = Circular dichroism of lipopeptide alone; assay type: physicochemical; conditions: CD, 10 µM in PBS pH 7.2

**Q.** Which results are given for CC[C@H](C)[C@H](NC(=O)[C@H](CCCCN)NC(=O)[C@H](CCCCN)NC(=O)[C@H](CCC(=O)O)NC(=O)[C@H](CC(C)C)NC(=O)[C@H](CCC(=O)O)NC(=O)[C@H](CCC(=O)O)NC(=O)[C@H](CC(C)C)NC(=O)[C@H](CCC(=O)O)NC(=O)[C@H](CCCCN)NC(=O)[C@H](CCC(=O)O)NC(=O)[C@H](Cc1ccc(O)cc1)NC(=O)[C@H](CCC(=O)O)NC(C)=O)C(=O)N[C@@H](CCC(=O)O)C(=O)N[C@@H](CCC(=O)O)C(=O)N[C@@H](CC(C)C)C(=O)N[C@@H](CC(C)C)C(=O)N[C@@H](CCCCN)C(=O)N[C@@H](CCCCN)C(=O)N[C@@H](C)C(=O)N[C@@H](CCC(=O)O)C(=O)N[C@@H](CCC(=O)O)C(=O)N[C@@H](CCC(N)=O)C(=O)N[C@@H](CCC(N)=O)C(=O)N[C@@H](CCCCN)C(=O)N[C@@H](CCCCN)C(=O)N[C@@H](CC(N)=O)C(=O)N[C@@H](CCC(=O)O)C(=O)N[C@@H](C)C(=O)N[C@@H](C)C(=O)N[C@@H](C)C(=O)N[C@@H](CCCCN)C(=O)N[C@@H](CCCCNC(=O)CCC(=O)O[C@H]1CC[C@@]2(C)C(=CC[C@H]3[C@@H]4CC[C@H]([C@H](C)CCCC(C)C)[C@@]4(C)CC[C@@H]32)C1)C(N)=O [LP-128] (Ac-EYEKELEELEKKIEELLKKAEEQQKKNEAAAKK(Succinyl(4-O-cholesteryl))-NH2)?
**A.** inhibitory activity higher than the T20, JR-CSF ([1]; TZM-bl cells, versus T20): 750 folds; IC50 ([1]; replicative strain JR-CSF, 48 h): 0.00747 nM; IC50 [2]: 1130 nM; IC50 [3]: 456 nM; IC50 ([4]; read-out: average IC50 value, membrane fusion of 12 viruses, average over Env of 12 representative pandemic HIV-1 strains): 0.00402 nM; inhibitory activity against membrane fusions of 12 viruses higher than that of the T20 ([4]; versus T20): 2790 folds; CC50 at 48 h [5]: 24100 nM; IC50 [6]: 353 nM; Tm value of the mixture with N44 ([7]; [θ]222, 20-98 °C at 2 °C/min): 90 °C; α-helix content of the mixture with N44 ([7]; lipopeptide and N44 each 10 µM in PBS pH 7.2): 84%; CC50 at 48 h [8]: 18000 nM; IC50 [9]: 0.00497 nM; change in antiviral activity after treatment at different temperatures [10]: no significant change; CC50 at 48 h [11]: 40300 nM; CC50 at 48 h [12]: 12500 nM; IC50 [13]: 1490 nM; IC50 ([14]; T20-resistant mutant strains ( strain NL4-3, 48 h)): 0.00913 nM; inhibitory activity against 12 drug-resistant mutant strains higher than that of the LP-98 ([14]; versus LP-98): 292 folds; change in antiviral activity after treatment with three proteases [15]: no significant change; CC50 at 48 h [16]: 8720 nM; IC50 [17]: 0.00327 nM; CC50 at 48 h [18]: 28200 nM; IC50 [19]: 534 nM; IC50 ([20]; representative pandemic strain pseudoviruses, 48 h): 0.00319 nM; inhibitory activity against 12 pseudoviruses higher than that of the T20 ([20]; versus T20): 6286 folds; CC50 at 48 h [21]: 7490 nM; therapeutic selective index (SI) [22]: very high; IC50 [23]: 274 nM; inhibitory activity higher than that of the T20, SG3.1 ([24]; TZM-bl cells, versus T20): 4282 folds; IC50 ([24]; strain SG3.1 living virus): 0.00175 nM; change in antiviral activity after treatment with human serum [25]: no significant change; α-helix content, lipopeptide alone [26]: 66%
